Legend:
[1] = test system: rodents; conditions: rodents (Anisimov et al., 2005); cited from earlier work
[2] = test system: WI-38 fibroblasts; experiment: doxorubicin exposure, induction of cell senescence; assay type: cell-based, human; conditions: exposure to doxorubicin, FIG. 2
Protocol: To illustrate the relationship between the TOR pathway and cell senescence, experiments were performed using WI-38 fibroblasts, a cell line that is commonly used to investigate cell senescence (Sarraj et al., 2001). […] Cell senescence is characterized by a large and flat cell morphology, beta-galactosidase expression in the cytoplasm as a terminal, non-replicative condition.

[3] = rapamycin administration (Kahan, 2004; Rodriguez et al., 2006); cited from earlier work
[4] = test system: tumor growth; conditions: in vitro and in vivo models; cited from earlier work

SMILES: [H]/N=C(/N)N/C(=N/[H])NCCc1ccccc1 [phenformin]
- life span [1]: extend life span

SMILES: COc1cccc2c1C(=O)c1c(O)c3c(c(O)c1C2=O)C[C@@](O)(C(=O)CO)C[C@@H]3O[C@H]1C[C@H](N)[C@H](O)[C@H](C)O1 [doxorubicin]
- induction of cell senescence [2]: induces accelerated cell senescence

SMILES: CO[C@H]1C[C@@H]2CC[C@@H](C)[C@@](O)(O2)C(=O)C(=O)N2CCCC[C@H]2C(=O)O[C@H]([C@H](C)C[C@@H]2CC[C@@H](O)[C@H](OC)C2)CC(=O)[C@H](C)/C=C(\C)[C@@H](O)[C@@H](OC)C(=O)[C@H](C)C[C@H](C)/C=C/C=C/C=C/1C [rapamycin]
- most common side effect [3]: increase of blood lipids

SMILES: CN(C)C(=N)N=C(N)N [metformin]
- life span [1]: extend life span

SMILES: CO[C@H]1C[C@@H]2CC[C@@H](C)[C@@](O)(O2)C(=O)C(=O)N2CCCC[C@H]2C(=O)O[C@H]([C@H](C)C[C@@H]2CC[C@@H](OC(=O)C(C)(CO)CO)[C@H](OC)C2)CC(=O)[C@H](C)/C=C(\C)[C@@H](O)[C@@H](OC)C(=O)[C@H](C)C[C@H](C)/C=C/C=C/C=C/1C [CCI-779, Rapamycin 42-ester with 3-hydroxy-2-(hydroxymethyl)-2-methylpropionic acid]
- effect on tumor growth [4]: significant inhibitory effects on tumor growth
